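Five concentrations, 48 hours, 96-well plates. TGI denotes the concentration required for complete inhibition of growth.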
What was measured:
Assay in all cases: inhibition of tumour cell growth, NCI panel, 48 h
SF-539 CNS = test system: SF-539 CNS
HS 578T breast = test system: HS 578T breast
UACC-257 melanoma = test system: UACC-257 melanoma
HOP-62 NSCLC = test system: HOP-62 NSCLC
RPMI-8226 leukemia = test system: RPMI-8226 leukemia
SK-MEL-28 melanoma = test system: SK-MEL-28 melanoma
MDA-MB-231 breast = test system: MDA-MB-231 breast
OVCAR-3 ovarian = test system: OVCAR-3 ovarian
SR leukemia = test system: SR leukemia
NCI-H522 lung = test system: NCI-H522 lung
MCF7 breast = test system: MCF7 breast
U251 CNS = test system: U251 CNS
A549 NSCLC = test system: A549 NSCLC
EKVX NSCLC = test system: EKVX NSCLC
K-562 leukemia = test system: K-562 leukemia
NCI-H460 lung = test system: NCI-H460 lung
HCC-2998 colon = test system: HCC-2998 colon
SF-295 CNS = test system: SF-295 CNS
IGROV1 ovarian = test system: IGROV1 ovarian
ACHN renal = test system: ACHN renal
TK-10 renal = test system: TK-10 renal
SNB-19 CNS = test system: SNB-19 CNS
MDA-N = test system: MDA-N
UO-31 renal = test system: UO-31 renal
CAKI-1 renal = test system: CAKI-1 renal
UACC-62 melanoma = test system: UACC-62 melanoma
SK-MEL-2 melanoma = test system: SK-MEL-2 melanoma
HCT-116 colon = test system: HCT-116 colon
SF-268 CNS = test system: SF-268 CNS
OVCAR-5 ovarian = test system: OVCAR-5 ovarian
NCI/ADR-RES ovarian = test system: NCI/ADR-RES ovarian
MDA-MB-435 = test system: MDA-MB-435
T-47D breast = test system: T-47D breast
CCRF-CEM leukemia = test system: CCRF-CEM leukemia
HT29 colon = test system: HT29 colon
DU-145 prostate = test system: DU-145 prostate
LOX IMVI melanoma = test system: LOX IMVI melanoma
SW-620 colon = test system: SW-620 colon
BT-549 breast = test system: BT-549 breast
786-0 renal = test system: 786-0 renal
OVCAR-8 ovarian = test system: OVCAR-8 ovarian
COLO 205 colon = test system: COLO 205 colon
OVCAR-4 ovarian = test system: OVCAR-4 ovarian
SK-OV-3 ovarian = test system: SK-OV-3 ovarian
SK-MEL-5 melanoma = test system: SK-MEL-5 melanoma
A498 renal = test system: A498 renal
KM12 colon = test system: KM12 colon
HCT-15 colon = test system: HCT-15 colon
PC-3 prostate = test system: PC-3 prostate
MOLT-4 leukemia = test system: MOLT-4 leukemia
SN12C renal = test system: SN12C renal
NCI-H23 lung = test system: NCI-H23 lung
HOP-92 NSCLC = test system: HOP-92 NSCLC
HL-60(TB) leukemia = test system: HL-60(TB) leukemia

Question: Which TGI (SF-539 CNS) does the source give for `COc1cc(C2SCC(=O)N2c2ccc(-n3c(-c4ccccc4)nc4ccccc4c3=O)cc2)cc(OC)c1OC` (centres undefined) here?
Answer: The TGI was greater than 100 µM.

Question: And the TGI (HS 578T breast)?
Answer: The TGI was greater than 100 µM.

Question: What about the TGI (UACC-257 melanoma) of the same compound?
Answer: Its TGI is greater than 100 µM.

Question: And the TGI (HOP-62 NSCLC)?
Answer: The TGI was greater than 100 µM.

Question: What about the TGI (RPMI-8226 leukemia) of the same compound?
Answer: Its TGI is greater than 100 µM.

Question: What about the TGI (SK-MEL-28 melanoma) of the same compound?
Answer: The TGI was greater than 100 µM.

Question: And the TGI (MDA-MB-231 breast)?
Answer: Its TGI is greater than 100 µM.

Question: What about the TGI (OVCAR-3 ovarian) of the same compound?
Answer: The TGI was greater than 100 µM.

Question: And the TGI (SR leukemia)?
Answer: The TGI was greater than 100 µM.

Question: And the TGI (NCI-H522 lung)?
Answer: Its TGI is greater than 100 µM.

Question: What about the TGI (MCF7 breast) of the same compound?
Answer: Its TGI is greater than 100 µM.

Question: And the TGI (U251 CNS)?
Answer: The TGI was greater than 100 µM.

Question: What about the TGI (A549 NSCLC) of the same compound?
Answer: Its TGI is greater than 100 µM.

Question: What about the TGI (EKVX NSCLC) of the same compound?
Answer: Its TGI is greater than 100 µM.

Question: What about the TGI (K-562 leukemia) of the same compound?
Answer: The TGI was greater than 100 µM.

Question: And the TGI (NCI-H460 lung)?
Answer: Its TGI is greater than 100 µM.

Question: And the TGI (HCC-2998 colon)?
Answer: Its TGI is greater than 100 µM.

Question: And the TGI (SF-295 CNS)?
Answer: The TGI was greater than 100 µM.

Question: What about the TGI (IGROV1 ovarian) of the same compound?
Answer: The TGI was greater than 100 µM.

Question: And the TGI (ACHN renal)?
Answer: Its TGI is greater than 100 µM.

Question: And the TGI (TK-10 renal)?
Answer: Its TGI is greater than 100 µM.

Question: What about the TGI (SNB-19 CNS) of the same compound?
Answer: The TGI was greater than 100 µM.

Question: And the TGI (MDA-N)?
Answer: Its TGI is greater than 100 µM.

Question: What about the TGI (UO-31 renal) of the same compound?
Answer: The TGI was 71.4 µM.

Question: What about the TGI (CAKI-1 renal) of the same compound?
Answer: The TGI was greater than 100 µM.

Question: And the TGI (UACC-62 melanoma)?
Answer: The TGI was greater than 100 µM.

Question: And the TGI (SK-MEL-2 melanoma)?
Answer: Its TGI is greater than 100 µM.

Question: What about the TGI (HCT-116 colon) of the same compound?
Answer: Its TGI is greater than 100 µM.

Question: And the TGI (SF-268 CNS)?
Answer: The TGI was greater than 100 µM.

Question: And the TGI (OVCAR-5 ovarian)?
Answer: The TGI was greater than 100 µM.

Question: What about the TGI (NCI/ADR-RES ovarian) of the same compound?
Answer: The TGI was greater than 100 µM.

Question: And the TGI (MDA-MB-435)?
Answer: Its TGI is greater than 100 µM.

Question: What about the TGI (T-47D breast) of the same compound?
Answer: The TGI was greater than 100 µM.

Question: What about the TGI (CCRF-CEM leukemia) of the same compound?
Answer: Its TGI is greater than 100 µM.

Question: And the TGI (HT29 colon)?
Answer: Its TGI is greater than 100 µM.

Question: And the TGI (DU-145 prostate)?
Answer: Its TGI is greater than 100 µM.

Question: What about the TGI (LOX IMVI melanoma) of the same compound?
Answer: Its TGI is greater than 100 µM.

Question: What about the TGI (SW-620 colon) of the same compound?
Answer: Its TGI is greater than 100 µM.

Question: And the TGI (BT-549 breast)?
Answer: The TGI was greater than 100 µM.

Question: And the TGI (786-0 renal)?
Answer: The TGI was greater than 100 µM.

Question: What about the TGI (OVCAR-8 ovarian) of the same compound?
Answer: Its TGI is greater than 100 µM.

Question: And the TGI (COLO 205 colon)?
Answer: Its TGI is greater than 100 µM.

Question: And the TGI (OVCAR-4 ovarian)?
Answer: Its TGI is greater than 100 µM.

Question: What about the TGI (SK-OV-3 ovarian) of the same compound?
Answer: The TGI was greater than 100 µM.

Question: And the TGI (SK-MEL-5 melanoma)?
Answer: Its TGI is greater than 100 µM.

Question: What about the TGI (A498 renal) of the same compound?
Answer: The TGI was greater than 100 µM.

Question: What about the TGI (KM12 colon) of the same compound?
Answer: The TGI was greater than 100 µM.

Question: What about the TGI (HCT-15 colon) of the same compound?
Answer: Its TGI is greater than 100 µM.

Question: And the TGI (PC-3 prostate)?
Answer: The TGI was greater than 100 µM.

Question: And the TGI (MOLT-4 leukemia)?
Answer: Its TGI is greater than 100 µM.

Question: And the TGI (SN12C renal)?
Answer: The TGI was greater than 100 µM.

Question: And the TGI (NCI-H23 lung)?
Answer: Its TGI is greater than 100 µM.

Question: And the TGI (HOP-92 NSCLC)?
Answer: Its TGI is 84.2 µM.

Question: And the TGI (HL-60(TB) leukemia)?
Answer: Its TGI is greater than 100 µM.

Source: PubChem BioAssay (NCI)
